Measured values: ChEMBL document CHEMBL1133131, “Discovery of an orally bioavailable alkyl oxadiazole beta3 adrenergic receptor agonist” (Bioorg Med Chem Lett, 2000)
Activity calls are given as the source filed them. No cut-off for these calls is given here.

Tests used:
[1] = molecular target: T1, Beta-3 adrenergic receptor (Homo sapiens, UniProt P13945); experiment: Agonist activity as increasedn cAMP production in Chinese hamster ovary (CHO)cells expressing human beta-3 adrenergic receptor; type: functional
Target sequence in this assay (P13945 whole entry): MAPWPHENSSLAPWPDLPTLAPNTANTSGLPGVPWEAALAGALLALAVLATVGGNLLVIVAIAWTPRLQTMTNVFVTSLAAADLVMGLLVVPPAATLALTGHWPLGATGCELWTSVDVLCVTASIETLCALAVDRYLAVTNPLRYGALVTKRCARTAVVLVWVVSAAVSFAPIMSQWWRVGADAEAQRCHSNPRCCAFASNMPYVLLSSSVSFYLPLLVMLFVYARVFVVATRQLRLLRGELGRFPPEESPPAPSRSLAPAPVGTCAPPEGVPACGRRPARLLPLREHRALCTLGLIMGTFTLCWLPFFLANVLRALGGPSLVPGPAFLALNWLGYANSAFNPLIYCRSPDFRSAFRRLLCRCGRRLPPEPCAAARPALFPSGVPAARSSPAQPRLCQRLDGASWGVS

[2] = molecular target: Beta-1 adrenergic receptor (Homo sapiens, UniProt P08588); experiment: Binding affinity towards cloned human Beta-1 adrenergic receptor prepared from CHO cells in the presence of [125I]iodocyanopindolol; type: cell-based
[3] = molecular target: T1, Beta-3 adrenergic receptor; experiment: Adenylyl cyclase activation as percent maximal isoproterenol stimulation of CHO cells expressing beta-3 receptor; type: functional, cell-based
Target sequence in this assay (P13945 whole entry, looked up): as the sequence (P13945 whole entry) above

[4] = molecular target: Beta-2 adrenergic receptor (Homo sapiens, UniProt P07550); experiment: Binding affinity towards Beta-2 adrenergic receptor prepared from CHO cells expressing the cloned human receptor in the presence of [125I]iodocyanopindolol; type: cell-based
[5] = Half life in dog; type: ADME, organism-based, Canis lupus familiaris; details: in vivo
[6] = Oral bioavailability of intravenously administered compound (3 mg/kg) was tested in rats; type: ADME, organism-based; details: rat, in vivo, intravenous
Monkey [7] = experiment: The compound was tested for the percent increase in heart rate at the dose level of 10 mg/kg; No significant alteration; type: functional, organism-based; design: dose 10 mg/kg; details: Cercopithecidae
Monkey [8] = experiment: The compound was evaluated for dose- dependent elevation of plasma glycerol in anesthetized rhesus; type: functional; details: Cercopithecidae, in Macaca mulatta
[9] = Oral bioavailability of perorally administered compound (10 mg/kg) was tested in dogs; type: ADME, organism-based, Canis lupus familiaris; details: dog, in vivo
[10] = Half life in rats; type: ADME, organism-based; details: rat, in vivo

Chain of Beta-2 adrenergic receptor (P07550 whole entry): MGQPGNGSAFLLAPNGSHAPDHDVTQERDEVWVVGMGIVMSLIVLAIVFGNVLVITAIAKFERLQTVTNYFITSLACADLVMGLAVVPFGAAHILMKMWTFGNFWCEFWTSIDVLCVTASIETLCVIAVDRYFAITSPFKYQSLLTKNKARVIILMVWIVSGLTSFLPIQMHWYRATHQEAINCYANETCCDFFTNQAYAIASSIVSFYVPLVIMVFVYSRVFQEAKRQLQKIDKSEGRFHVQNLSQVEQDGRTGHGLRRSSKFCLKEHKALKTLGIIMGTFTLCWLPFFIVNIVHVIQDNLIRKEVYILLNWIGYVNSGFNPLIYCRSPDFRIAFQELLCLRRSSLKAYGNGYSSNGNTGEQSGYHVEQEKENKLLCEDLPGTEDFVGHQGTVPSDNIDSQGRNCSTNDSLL
Chain of Beta-1 adrenergic receptor (P08588 whole entry): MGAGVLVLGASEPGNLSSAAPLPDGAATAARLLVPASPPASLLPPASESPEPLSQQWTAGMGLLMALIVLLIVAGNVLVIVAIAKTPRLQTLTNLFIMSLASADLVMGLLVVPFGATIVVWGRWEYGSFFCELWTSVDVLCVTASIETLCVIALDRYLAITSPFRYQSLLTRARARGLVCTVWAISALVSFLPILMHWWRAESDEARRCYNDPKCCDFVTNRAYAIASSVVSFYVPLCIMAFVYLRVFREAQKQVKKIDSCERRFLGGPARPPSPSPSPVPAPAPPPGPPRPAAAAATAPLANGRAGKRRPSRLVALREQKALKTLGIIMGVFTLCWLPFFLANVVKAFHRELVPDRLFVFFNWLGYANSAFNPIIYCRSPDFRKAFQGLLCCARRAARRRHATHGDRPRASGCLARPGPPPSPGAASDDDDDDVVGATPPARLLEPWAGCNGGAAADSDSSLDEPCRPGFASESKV

EC50 [1] [nM] | IC50 [2] [nM] | Activation [3] [%] | IC50 [4] [nM] | half-life [5] [h] | bioavailability [6] [%] | bioavailability [9] [%] | half-life [10] [h] | SMILES | Activity (Monkey [7]) | ED50 (Monkey [8]) [mg/kg]
130 | 70000 | 69 | 57000 |  |  |  |  | CC(=O)CCCc1nc(-c2ccc(S(=O)(=O)Nc3ccc(CCNC[C@H](O)c4cccnc4)cc3)cc2)no1 |  | 
120 | 30000 | 49 | 51000 |  |  |  |  | O=C(CCc1nc(-c2ccc(S(=O)(=O)Nc3ccc(CCNC[C@H](O)c4cccnc4)cc3)cc2)no1)N1CCCC1 |  | 
35 | 2000 | 79 | 1000 |  |  |  |  | CCCCCCc1nc(-c2ccc(S(=O)(=O)Nc3ccc(CCNC[C@H](O)c4cccnc4)cc3)cc2)no1 |  | 
54 | 9000 | 90 | 2500 |  |  |  |  | CCCCCCCCc1nc(-c2ccc(S(=O)(=O)Nc3ccc(CCNC[C@H](O)c4cccnc4)cc3)cc2)no1 |  | 
39 | 2000 | 86 | 1410 |  |  |  |  | CCCCCCCc1nc(-c2ccc(S(=O)(=O)Nc3ccc(CCNC[C@H](O)c4cccnc4)cc3)cc2)no1 |  | 
> 100 | 10000 | 15 | 10000 |  |  |  |  | Cc1nc(-c2ccc(S(=O)(=O)Nc3ccc(CCNC[C@H](O)c4cccnc4)cc3)cc2)no1 |  | 
> 100 | 10000 | 20 | 44000 |  |  |  |  | CC(O)CCCc1nc(-c2ccc(S(=O)(=O)Nc3ccc(CCNC[C@H](O)c4cccnc4)cc3)cc2)no1 (stereo not given in full) |  | 
87 | 8500 | 70 | 8500 |  |  |  |  | CCCc1nc(-c2ccc(S(=O)(=O)Nc3ccc(CCNC[C@H](O)c4cccnc4)cc3)cc2)no1 |  | 
32 | 55000 | 86 | 6500 |  |  |  |  | CCCCc1nc(-c2ccc(S(=O)(=O)Nc3ccc(CCNC[C@H](O)c4cccnc4)cc3)cc2)no1 |  | 
75 | 56000 | 53 | 24000 |  |  |  |  | CCC(O)CCc1nc(-c2ccc(S(=O)(=O)Nc3ccc(CCNC[C@H](O)c4cccnc4)cc3)cc2)no1 (stereo not given in full) |  | 
13 | 8330 | 70 | 2670 |  |  |  |  | O=S(=O)(Nc1ccc(CCNC[C@H](O)c2cccnc2)cc1)c1ccc(-c2noc(CCOC3CCCC3)n2)cc1 |  | 
23 | 5500 | 53 | 3000 | 3.6 | 36 | 62 | 2.4 | CCCCCc1nc(-c2ccc(S(=O)(=O)Nc3ccc(CCNC[C@H](O)c4cccnc4)cc3)cc2)no1 | inactive | 0.22
66 | 25000 | 75 | 12000 |  |  |  |  | CCC(=O)CCc1nc(-c2ccc(S(=O)(=O)Nc3ccc(CCNC[C@H](O)c4cccnc4)cc3)cc2)no1 |  | 
29 | 26000 | 58 | 1000 |  |  |  |  | CC(C)CCCc1nc(-c2ccc(S(=O)(=O)Nc3ccc(CCNC[C@H](O)c4cccnc4)cc3)cc2)no1 |  | 

SMILES | EC50 [1] [nM] | IC50 [2] [nM] | Activation [3] [%] | IC50 [4] [nM] | half-life [5] [h] | bioavailability [6] [%] | bioavailability [9] [%] | half-life [10] [h] | Activity (Monkey [7]) | ED50 (Monkey [8]) [mg/kg]
O=S(=O)(Nc1ccc(CCNC[C@H](O)c2cccnc2)cc1)c1ccc(-c2noc(CCCC3CCCC3)n2)cc1 | 15 | 5500 | 83 | 962 |  |  |  |  |  | 
O=S(=O)(Nc1ccc(CCNC[C@H](O)c2cccnc2)cc1)c1ccc(-c2noc(CCCC3CCCCC3)n2)cc1 | 19 | 1970 | 62 | 660 |  |  |  |  |  | 
